# Measurements published in US20240316022A1 (TYRA BIOSCIENCES, INC., priority 2021, published 2024).
# Structures can show the parent of a compound that is named as a salt. Where two headings read alike, the source gives them in different places.
# What was measured:
# Assay in all cases: Kinase binding assay (kinase-tagged T7 phage, qPCR), Kd
# [1] = target: T1, FGFR3 (Homo sapiens, UniProt P22607)
# T1 construct: made in house; host or cells: E. coli derived from BL21, infected with T7 phage
# [2] = target: T2, FGFR4 (Homo sapiens, UniProt P22455)
# T2 construct: made in house; host or cells: E. coli derived from BL21, infected with T7 phage
# [3] = target: T3, FGFR1 (Homo sapiens, UniProt P11362)
# T3 construct: made in house; host or cells: E. coli derived from BL21, infected with T7 phage
# [4] = target: T4, FGFR2 (Homo sapiens, UniProt P21802)
# T4 construct: made in house; host or cells: E. coli derived from BL21, infected with T7 phage
# T4 sequence (P21802 22-821): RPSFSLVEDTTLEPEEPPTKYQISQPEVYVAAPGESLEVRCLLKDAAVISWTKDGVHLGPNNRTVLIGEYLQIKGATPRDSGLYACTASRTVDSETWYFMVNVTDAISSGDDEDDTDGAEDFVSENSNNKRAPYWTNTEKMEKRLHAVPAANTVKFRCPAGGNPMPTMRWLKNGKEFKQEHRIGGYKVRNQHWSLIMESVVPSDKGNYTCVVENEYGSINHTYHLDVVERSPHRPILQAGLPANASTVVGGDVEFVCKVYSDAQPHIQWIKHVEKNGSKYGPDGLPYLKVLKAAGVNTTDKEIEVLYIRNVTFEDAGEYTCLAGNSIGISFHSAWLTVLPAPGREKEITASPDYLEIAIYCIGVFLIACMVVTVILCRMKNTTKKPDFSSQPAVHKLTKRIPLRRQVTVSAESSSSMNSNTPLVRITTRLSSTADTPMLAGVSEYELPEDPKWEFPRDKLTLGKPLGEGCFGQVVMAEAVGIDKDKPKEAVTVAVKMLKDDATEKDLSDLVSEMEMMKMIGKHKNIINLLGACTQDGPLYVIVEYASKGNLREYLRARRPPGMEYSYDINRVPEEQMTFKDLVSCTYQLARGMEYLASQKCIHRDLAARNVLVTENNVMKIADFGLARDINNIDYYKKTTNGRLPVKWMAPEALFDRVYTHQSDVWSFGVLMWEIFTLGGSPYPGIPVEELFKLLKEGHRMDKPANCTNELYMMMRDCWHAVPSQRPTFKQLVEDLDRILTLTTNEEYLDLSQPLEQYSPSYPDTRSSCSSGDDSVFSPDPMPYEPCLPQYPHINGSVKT
# T2 sequence (P22455 22-802): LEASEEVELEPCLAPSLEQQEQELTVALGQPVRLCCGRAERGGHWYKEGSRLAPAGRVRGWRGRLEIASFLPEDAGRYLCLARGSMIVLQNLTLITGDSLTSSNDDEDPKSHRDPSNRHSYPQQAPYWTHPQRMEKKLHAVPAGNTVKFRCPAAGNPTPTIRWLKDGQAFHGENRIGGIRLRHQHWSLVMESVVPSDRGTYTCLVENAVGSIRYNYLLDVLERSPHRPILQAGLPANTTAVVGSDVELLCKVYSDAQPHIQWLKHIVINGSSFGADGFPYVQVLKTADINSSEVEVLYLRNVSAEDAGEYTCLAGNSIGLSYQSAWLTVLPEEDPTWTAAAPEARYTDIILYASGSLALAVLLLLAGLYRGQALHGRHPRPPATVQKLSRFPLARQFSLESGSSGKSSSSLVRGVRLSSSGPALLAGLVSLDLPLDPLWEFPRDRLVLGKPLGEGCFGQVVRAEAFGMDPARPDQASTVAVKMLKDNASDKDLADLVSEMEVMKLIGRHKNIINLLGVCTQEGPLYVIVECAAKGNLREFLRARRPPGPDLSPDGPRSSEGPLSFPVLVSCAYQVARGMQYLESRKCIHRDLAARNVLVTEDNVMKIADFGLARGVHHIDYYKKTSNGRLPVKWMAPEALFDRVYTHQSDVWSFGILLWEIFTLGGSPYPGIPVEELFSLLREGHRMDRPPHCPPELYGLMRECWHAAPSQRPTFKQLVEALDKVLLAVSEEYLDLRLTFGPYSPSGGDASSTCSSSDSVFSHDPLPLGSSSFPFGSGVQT
# T1 sequence (P22607 23-806): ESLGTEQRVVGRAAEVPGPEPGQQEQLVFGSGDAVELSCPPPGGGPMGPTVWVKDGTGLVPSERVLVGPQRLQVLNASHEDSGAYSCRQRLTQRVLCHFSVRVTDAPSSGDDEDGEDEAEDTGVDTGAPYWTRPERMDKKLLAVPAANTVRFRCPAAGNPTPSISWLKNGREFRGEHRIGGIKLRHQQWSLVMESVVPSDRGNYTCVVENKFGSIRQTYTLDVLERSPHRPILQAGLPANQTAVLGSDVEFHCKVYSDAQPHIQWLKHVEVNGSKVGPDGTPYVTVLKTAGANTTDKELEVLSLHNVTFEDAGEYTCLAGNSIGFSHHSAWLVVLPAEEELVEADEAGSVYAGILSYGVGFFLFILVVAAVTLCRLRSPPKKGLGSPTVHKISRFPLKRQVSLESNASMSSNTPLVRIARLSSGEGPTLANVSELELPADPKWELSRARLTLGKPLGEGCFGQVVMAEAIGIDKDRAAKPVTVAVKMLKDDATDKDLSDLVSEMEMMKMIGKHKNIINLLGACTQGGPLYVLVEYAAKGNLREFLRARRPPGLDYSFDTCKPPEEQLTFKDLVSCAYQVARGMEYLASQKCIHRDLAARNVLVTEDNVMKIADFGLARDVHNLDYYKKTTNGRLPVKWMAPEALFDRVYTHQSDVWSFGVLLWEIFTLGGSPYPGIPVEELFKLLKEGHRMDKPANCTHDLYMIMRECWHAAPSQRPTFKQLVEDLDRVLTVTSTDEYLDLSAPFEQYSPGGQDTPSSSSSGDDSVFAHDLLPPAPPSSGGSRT
# T3 sequence (P11362 22-822): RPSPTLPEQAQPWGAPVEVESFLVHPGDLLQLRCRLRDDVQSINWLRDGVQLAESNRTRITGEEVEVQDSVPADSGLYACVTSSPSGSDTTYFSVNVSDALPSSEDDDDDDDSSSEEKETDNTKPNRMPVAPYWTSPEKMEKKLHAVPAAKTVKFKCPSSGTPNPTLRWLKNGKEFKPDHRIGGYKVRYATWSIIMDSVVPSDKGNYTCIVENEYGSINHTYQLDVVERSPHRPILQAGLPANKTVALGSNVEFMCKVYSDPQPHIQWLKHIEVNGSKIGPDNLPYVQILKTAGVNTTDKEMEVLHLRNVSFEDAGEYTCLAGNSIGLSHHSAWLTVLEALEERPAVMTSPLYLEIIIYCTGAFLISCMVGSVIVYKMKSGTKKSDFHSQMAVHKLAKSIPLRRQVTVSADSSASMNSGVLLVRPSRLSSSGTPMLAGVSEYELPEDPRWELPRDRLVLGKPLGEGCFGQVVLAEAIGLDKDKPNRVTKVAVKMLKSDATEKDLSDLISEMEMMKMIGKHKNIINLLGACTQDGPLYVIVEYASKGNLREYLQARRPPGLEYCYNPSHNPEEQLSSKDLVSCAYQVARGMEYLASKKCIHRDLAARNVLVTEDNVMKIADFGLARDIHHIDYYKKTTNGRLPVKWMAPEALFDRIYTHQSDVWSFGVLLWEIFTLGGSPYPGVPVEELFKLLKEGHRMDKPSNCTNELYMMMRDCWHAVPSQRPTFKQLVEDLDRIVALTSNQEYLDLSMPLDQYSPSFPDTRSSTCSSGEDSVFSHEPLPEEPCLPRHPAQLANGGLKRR
Structure (SMILES),Kd ([1]; read-out: FGFR3 (Kd nM)) [nM],Kd ([2]; read-out: FGFR4 (Kd nM)) [nM],Kd ([3]; read-out: FGFR1 (Kd nM)) [nM],Kd ([4]; read-out: FGFR2 (Kd nM)) [nM],Kd [1] [nM],Kd [2] [nM],Kd [3] [nM],Kd [4] [nM]
"CCOc1cc(OC)cc(-c2n[nH]c3ccc(O[C@H](C)c4c(C)cnnc4C)cc23)c1 [Example 52, 5-[(1R)-1-(3,5-dimethylpyridazin-4-yl)ethoxy]-3-(3-ethoxy-5-methoxy-phenyl)-1H-indazole]",100 to 250,0.1 to 100,> 1000,250 to 1000,–,–,–,–
"Cc1ncc(Cl)c([C@@H](C)Oc2cc3c(-c4cnc5c(c4)N(S(C)(=O)=O)CCO5)n[nH]c3cc2Cl)c1Cl [Example 143, 7-[6-chloro-5-[(1R)-1-(3,5-dichloro-2-methyl-4-pyridyl)ethoxy]-1H-indazol-3-yl]-1-methylsulfonyl-2,3-dihydropyrido[2,3-b][1,4]oxazine]",100 to 250,100 to 250,> 1000,> 1000,–,–,–,–
"CCN1CCC2(CCc3cc(-c4n[nH]c5ccc(O[C@H](C)c6c(Cl)cncc6Cl)cc45)ccc3O2)CC1 [Example 121, 6-[5-[(1R)-1-(3,5-dichloro-4-pyridyl)ethoxy]-1H-indazol-3-yl]-1′-ethylspiro[chromane-2,4′-piperidine]]",0.1 to 100,0.1 to 100,0.1 to 100,0.1 to 100,–,–,–,–
"COc1ncc(-c2n[nH]c3ccc(O[C@H](C)c4c(C)cnnc4C)cc23)cc1C#N [Example 88, 5-[5-[(1R)-1-(3,5-dimethylpyridazin-4-yl)ethoxy]-1H-indazol-3-yl]-2-methoxy-pyridine-3-carbonitrile]",100 to 250,0.1 to 100,250 to 1000,250 to 1000,–,–,–,–
"C[C@@H](Oc1ccc2[nH]nc(-c3cnc(OCC(C)(C)O)c(C#N)c3)c2c1)c1c(Cl)cncc1Cl [Example 122, 5-[5-[(1R)-1-(3,5-dichloro-4-pyridyl)ethoxy]-1H-indazol-3-yl]-2-(2-hydroxy-2-methyl-propoxy)pyridine-3-carbonitrile]",0.1 to 100,0.1 to 100,0.1 to 100,0.1 to 100,–,–,–,–
"Cc1cc(-c2n[nH]c3ccc(O[C@H](C)c4c(C)cnnc4C)cc23)cc(C#N)n1 [Example 69, 4-[5-[(1R)-1-(3,5-Dimethylpyridazin-4-yl)ethoxy]-1H-indazol-3-yl]-6-methyl-pyridine-2-carbonitrile]",0.1 to 100,0.1 to 100,100 to 250,0.1 to 100,–,–,–,–
COc1c(C)cc(-c2n[nH]c3ccc(O[C@H](C)c4c(Cl)cncc4Cl)cc23)cc1C#N [Example 108],0.1 to 100,0.1 to 100,250 to 1000,250 to 1000,–,–,–,–
"COc1cc(-c2n[nH]c3ccc(O[C@H](C)c4c(C)cnnc4C)cc23)cc(C#N)c1OC [Example 76, 5-[5-[(1R)-1-(3,5-dimethylpyridazin-4-yl)ethoxy]-1H-indazol-3-yl]-2,3-dimethoxy-benzonitrile]",100 to 250,0.1 to 100,250 to 1000,> 1000,–,–,–,–
"COCCNc1cc(-c2n[nH]c3ccc(O[C@H](C)c4c(Cl)cncc4Cl)cc23)ccn1 [Example 35, (R)-4-(5-(1-(3,5-Dichloropyridin-4-yl)ethoxy)-1H-indazol-3-yl)-N-(2-methoxyethyl)pyridin-2-amine]",0.1 to 100,0.1 to 100,0.1 to 100,0.1 to 100,–,–,–,–
"C[C@@H](Oc1ccc2[nH]nc(-c3cnc(N[C@H]4CCOC4)c(C#N)c3)c2c1)c1c(Cl)cncc1Cl [Example 129, 5-(5-((R)-1-(3,5-dichloropyridin-4-yl)ethoxy)-1H-indazol-3-yl)-2-(((S)-tetrahydrofuran-3-yl)amino)nicotinonitrile]",0.1 to 100,0.1 to 100,0.1 to 100,0.1 to 100,–,–,–,–
"Cc1cc(-c2n[nH]c3ccc(O[C@H](C)c4c(C)cnnc4C)cc23)cc(C#N)c1OC1CCN(C(C)C)CC1 [Example 110, (R)-5-(5-(1-(3,5-dimethylpyridazin-4-yl)ethoxy)-1H-indazol-3-yl)-2-((1-isopropylpiperidin-4-yl)oxy)-3-methylbenzonitrile]",0.1 to 100,0.1 to 100,0.1 to 100,0.1 to 100,–,–,–,–
"Cc1cnnc(C)c1[C@@H](C)Oc1ccc2[nH]nc(-c3cc(C#N)cc(C#N)c3)c2c1 [Example 83, 5-[5-[(1R)-1-(3,5-dimethylpyridazin-4-yl)ethoxy]-1H-indazol-3-yl]benzene-1,3-dicarbonitrile]",250 to 1000,0.1 to 100,250 to 1000,> 1000,–,–,–,–
"COc1ncc(-c2n[nH]c3ccc(O[C@H](C)c4c(Cl)cncc4Cl)cc23)cc1NC(=O)c1cccc2cccnc12 [Example 3, (R)—N-(5-(5-(1-(3,5-Dichloropyridin-4-yl)ethoxy)-1H-indazol-3-yl)-2-methoxypyridin-3-yl)quinoline-8-carboxamide]",> 1000,250 to 1000,> 1000,> 1000,–,–,–,–
"COc1cc(-c2n[nH]c3cc(OC)c(O[C@H](C)c4c(C)cnnc4C)cc23)cc(C#N)n1 [Example 98, (R)-4-(5-(1-(3,5-dimethylpyridazin-4-yl)ethoxy)-6-methoxy-1H-indazol-3-yl)-6-methoxypicolinonitrile]",100 to 250,0.1 to 100,100 to 250,100 to 250,–,–,–,–
"COc1ncc(-c2n[nH]c3ccc(O[C@H](C)c4c(Cl)cncc4Cl)cc23)cc1NCc1ccccn1 [Example 4, (R)-5-(5-(1-(3,5-Dichloropyridin-4-yl)ethoxy)-1H-indazol-3-yl)-2-methoxy-N-(pyridin-2-ylmethyl)pyridin-3-amine]",250 to 1000,250 to 1000,> 1000,> 1000,–,–,–,–
"COc1cc(NCc2cccnc2)cc(-c2n[nH]c3ccc(O[C@H](C)c4c(Cl)cncc4Cl)cc23)c1 [Example 47, 3-[5-[(1R)-1-(3,5-dichloro-4-pyridyl)ethoxy]-1H-indazol-3-yl]-5-methoxy-N-(3-pyridyl-methyl)aniline]",0.1 to 100,250 to 1000,100 to 250,100 to 250,–,–,–,–
"Cc1cnnc(C)c1[C@@H](C)Oc1ccc2[nH]nc(-c3cc(C#N)cc(N4CC5(CN(C)C5)C4)c3)c2c1 [Example 87, 3-[5-[(1R)-1-(3,5-dimethylpyridazin-4-yl)ethoxy]-1H-indazol-3-yl]-5-(6-methyl-2,6-diazaspiro[3.3]heptan-2-yl)benzonitrile]",250 to 1000,250 to 1000,> 1000,250 to 1000,–,–,–,–
"Cc1cccc(C(=O)N2CCOc3ncc(-c4n[nH]c5ccc(O[C@H](C)c6c(Cl)cncc6Cl)cc45)cc32)n1 [Example 39, [7-[5-[(1R)-1-(3,5-dichloro-4-pyridyl)ethoxy]-1H-indazol-3-yl]-2,3-dihydro-pyrido[2,3-b][1,4]oxazin-1-yl]-(6-methyl-2-pyridyl)methanone]",250 to 1000,0.1 to 100,> 1000,> 1000,–,–,–,–
"C[C@@H](Oc1ccc2[nH]nc(-c3ccc(OC4CC5(COC5)C4)nc3)c2c1)c1c(Cl)cncc1Cl [Example 161, (R)-3-(6-(2-oxaspiro[3.3]heptan-6-yloxy)pyridin-3-yl)-5-(1-(3,5-dichloropyridin-4-yl)ethoxy)-1H-indazole]",0.1 to 100,0.1 to 100,0.1 to 100,0.1 to 100,–,–,–,–
"C[C@@H](Oc1ccc2[nH]nc(-c3cnc4c(c3)N(Cc3ccccn3)CCO4)c2c1)c1c(Cl)cncc1Cl [Example 48, 7-[5-[(1R)-1-(3,5-dichloro-4-pyridyl)ethoxy]-1H-indazol-3-yl]-1-(2-pyridyl-methyl)-2,3-dihydro-pyrido[2,3-b][1,4]oxazine]",0.1 to 100,250 to 1000,> 1000,> 1000,–,–,–,–
"C[C@@H](Oc1ccc2[nH]nc(-c3ccc4c(c3)COC3(CCNCC3)O4)c2c1)c1c(Cl)cncc1Cl [Example 94, (R)-6-(5-(1-(3,5-Dichloropyridin-4-yl)ethoxy)-1H-indazol-3-yl)-4H-spiro[benzo[d][1,3]dioxine-2,4′-piperidine] TFA salt]",–,–,–,–,0.1 to 100,0.1 to 100,0.1 to 100,0.1 to 100
"Cc1cnnc(C)c1[C@@H](C)Oc1ccc2[nH]nc(-c3cnc(O[C@@H]4CCOC4)c(C#N)c3)c2c1 [Example 128, 5-(5-((R)-1-(3,5-dimethylpyridazin-4-yl)ethoxy)-1H-indazol-3-yl)-2-(((R)-tetrahydrofuran-3-yl)oxy)nicotinonitrile]",0.1 to 100,0.1 to 100,100 to 250,100 to 250,–,–,–,–
"CCOc1cc(OC)cc(-c2n[nH]c3ccc(O[C@@H](C)c4c(C)cnnc4C)cc23)c1 [Example 59, 5-[(1S)-1-(3,5-dimethylpyridazin-4-yl)ethoxy]-3-(3-ethoxy-5-methoxy-phenyl)-1H-indazole]",> 1000,> 1000,> 1000,> 1000,–,–,–,–
